Patent publication US8101761B2, “(E)-N-{3-[1-(8-fluoro-11H-10-OXA-1-AZA-dibenzo [A,D] cyclohepten-5ylidene)-propyl]-phenyl}-methanesulfonamide as glucocorticoid receptor modulator for the treatment of rheumatoid arthritis” (Eli Lilly and Company, priority 2008, dated 2012)
pEC50, pKi: −log10 of the molar value.

How the values were obtained:
[1] = target: T1, human mineralocorticoid receptor (MR) (Homo sapiens, UniProt P08235); test: Nuclear hormone receptor functional modulation assay (GRE-luciferase reporter, HEK293), MR; assay type: cell-based; conditions: agonist mode, mean of n=4 or 5
T1 construct: expressed in transfected cells; host or cells: HEK293, transient transfection, CMV promoter plasmid
T1 sequence (P08235 1-984): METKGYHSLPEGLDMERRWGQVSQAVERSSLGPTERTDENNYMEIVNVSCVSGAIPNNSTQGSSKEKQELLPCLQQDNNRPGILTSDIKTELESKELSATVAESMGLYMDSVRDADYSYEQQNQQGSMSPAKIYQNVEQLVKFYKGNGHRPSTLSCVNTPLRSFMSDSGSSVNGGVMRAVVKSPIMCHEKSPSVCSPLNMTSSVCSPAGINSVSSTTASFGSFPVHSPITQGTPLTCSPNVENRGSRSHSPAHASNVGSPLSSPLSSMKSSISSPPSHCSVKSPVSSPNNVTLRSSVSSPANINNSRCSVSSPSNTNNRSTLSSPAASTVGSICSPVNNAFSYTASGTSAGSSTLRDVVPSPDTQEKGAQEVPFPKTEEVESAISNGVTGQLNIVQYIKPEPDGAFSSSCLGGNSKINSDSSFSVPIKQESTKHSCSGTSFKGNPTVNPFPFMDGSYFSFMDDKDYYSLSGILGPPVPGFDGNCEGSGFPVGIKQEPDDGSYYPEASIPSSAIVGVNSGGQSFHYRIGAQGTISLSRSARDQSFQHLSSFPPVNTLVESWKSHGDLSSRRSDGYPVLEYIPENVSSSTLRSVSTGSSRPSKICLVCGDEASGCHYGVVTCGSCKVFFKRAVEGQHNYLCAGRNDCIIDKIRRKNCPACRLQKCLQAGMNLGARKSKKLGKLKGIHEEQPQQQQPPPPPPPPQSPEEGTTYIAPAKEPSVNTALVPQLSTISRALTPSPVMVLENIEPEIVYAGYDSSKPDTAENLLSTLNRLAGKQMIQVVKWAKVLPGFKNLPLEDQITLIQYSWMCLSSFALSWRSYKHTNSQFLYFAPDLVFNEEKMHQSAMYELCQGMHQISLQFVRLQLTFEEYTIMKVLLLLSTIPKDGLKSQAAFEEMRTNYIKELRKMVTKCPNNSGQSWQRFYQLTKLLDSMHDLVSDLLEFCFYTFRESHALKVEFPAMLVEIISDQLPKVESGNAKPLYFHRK
Excerpt: The solvents, reagents, and ligands employed in the functional assay are readily available from commercial sources, or can be prepared by one of ordinary skill in the art.
Human embryonic kidney HEK293 cells are transfected with steroid hormone receptor and reporter gene plasmids using Fugene™ transfection reagent. Briefly, the reporter plasmid containing two copies of probasin ARE and TK(thymidine kinase) promoter upstream of the luciferase reporter cDNA, is transfected into HEK293 cells with a plasmid constitutively expressing human androgen receptor (AR) using viral CMV(cytomegalovirus) promoter. The reporter plasmid containing two copies of GRE and TK promoter upstream of the luciferase reporter cDNA is transfected with a plasmid constitutively expressing either human glucocorticoid receptor (GR), human mineralocorticoid receptor (MR), or human progesterone receptor (PR) using viral CMV promoter. […] After 24-hours incubation with test compounds, cells are lysed and luciferase activity is determined using standard techniques.
Data are fitted to a four parameter-fit logistic curve fit to determine EC50 values. […] IC50 values may be determined similarly using antagonist mode assay data. Percent inhibitions may also be determined relative to the response in the presence of agonist alone, as described above.

[2] = target: T2, human MR (mineralocorticoid receptor) (Homo sapiens, UniProt P08235); test: Nuclear hormone receptor competition binding assay, MR; conditions: HEK293 lysate overexpressing human MR, [3H]-aldosterone; mean of n=7
T2 construct: expressed in transfected cells; host or cells: HEK293 (293-MR lysate)
T2 sequence (P08235 1-984): T1 sequence (P08235 1-984)
Experimental: Cell lysates from human embryonic kidney HEK293 cells overexpressing human GR (glucocorticoid receptor), AR (androgen receptor), MR (mineralocorticoid receptor), or PR (progesterone receptor) are used for receptor-ligand competition binding assays to determine Ki values.
Briefly, steroid receptor competition binding assays are run in a buffer containing 20 mM Hepes buffer (pH=7.6), 0.2 mM EDTA, 75 mM NaCl, 1.5 mM MgCl2, 20% glycerol, 20 mM sodium molybdate, 0.2 mM DTT (dithiothreitol), 20 μg/ml aprotinin and 20 μg/ml leupeptin. Typically, steroid receptor binding assays include radio-labeled ligands, such as 0.3 nM [^3H]-dexamethasone for GR binding, 0.36 nM [^3H]-methyltrienolone for AR binding, 0.25 nM [^3H]-aldosterone for MR binding, and 0.29 nM [^3H]-methyltrienolone for PR binding, and either 20 μg 293-GR lysate, 22 μg 293-AR lysate, 20 μg 293-MR lysate or 40 μg 293-PR lysate per well. Assays are typically run in 96-well format. Competing test compounds are added at various concentrations ranging from about 0.01 nM to 10 μM. Non-specific binding is determined in the presence of 500 nM dexamethasone for GR binding, 500 nM aldosterone for MR binding, or 500 nM methyltrienolone for AR and PR binding. […] After an incubation of 2 hours, plates are read in a Wallac Microbeta counter. […]

For CC/C(=C1\c2ccc(F)cc2OCc2ncccc21)c1cccc(NS(C)(=O)=O)c1 [Compound (I), (E)-N-{3-[1-(8-Fluoro-11H-10-oxa-1-aza-dibenzo[a,d]cyclohepten-5-ylidene)-propyl]-phenyl}-methanesulfonamide], the “efficacy in activating transcription, MR” value ([1]; relative to 30 nM aldosterone) was “about 11%”, the pEC50 ([1]; read-out: EC50 in activating transcription, MR) was less than 5.00 and the pKi [2] was roughly 8.04.
